{"source": "paper PMC6364417", "about": "“Kinase inhibitor library screening identifies synergistic drug combinations effective in sensitive and resistant melanoma cells” (Journal of Experimental & Clinical Cancer Research : CR, 2019)", "assay_in_all_cases": "Kinase inhibitor library screening, PrestoBlue cell viability, 1 or 10 μM, 72 h", "key": {"[1]": {"tested_on": "A375-GP cells (Dabrafenib-resistant)"}, "[2]": {"tested_on": "A375 cells (parental)"}, "[3]": {"tested_on": "A375-XP cells (Vemurafenib-resistant)"}, "[4]": {"tested_on": "501Mel cells (parental)", "conditions": "72 h", "summary_of_the_method": "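Treatment: 72 h with inhibitor. Detection: PrestoBlue, plate reader. Output: viability as % untreated control. Replicates: duplicate minimum. Lines: parental plus Vemurafenib- or Dabrafenib-resistant derivatives.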"}, "[5]": {"tested_on": "IGR37-XP cells (Vemurafenib-resistant)"}, "[6]": {"tested_on": "IGR37 cells (parental)"}, "[7]": {"tested_on": "501Mel-XP cells (Vemurafenib-resistant)", "conditions": "72 h"}, "[8]": {"tested_on": "501Mel-GP cells (Dabrafenib-resistant)", "conditions": "72 h"}, "[9]": {"tested_on": "IGR37-GP cells (Dabrafenib-resistant)"}}, "data": [{"smiles": "N#CCNC(=O)c1ccc(-c2ccnc(Nc3ccc(N4CCOCC4)cc3)n2)cc1", "note": "[Cyt387]", "values": [{"measurement": "viability at 1 µM", "setting": "[1]; Homo sapiens, A-375, 72 h, read-out: cell viability, A375 GP, 1μΜ", "result": 94.4, "unit": "%"}, {"measurement": "viability at 10 µM", "setting": "[1]; Homo sapiens, A-375, 72 h, read-out: cell viability, A375 GP, 10μΜ", "result": 43.9, "unit": "%"}, {"measurement": "viability at 1 µM", "setting": "[2]; Homo sapiens, A-375, 72 h, read-out: cell viability, A375 Parental, 1μΜ", "result": 99.6, "unit": "%"}, {"measurement": "viability at 10 µM", "setting": "[2]; Homo sapiens, A-375, 72 h, read-out: cell viability, A375 Parental, 10μΜ", "result": 48.4, "unit": "%"}, {"measurement": "viability at 1 µM", "setting": "[3]; Homo sapiens, A-375, 72 h, read-out: cell viability, A375 XP, 1μΜ", "result": 95.8, "unit": "%"}, {"measurement": "viability at 10 µM", "setting": "[3]; Homo sapiens, A-375, 72 h, read-out: cell viability, A375 XP, 10μΜ", "result": 64.7, "unit": "%"}, {"measurement": "viability at 1 µM", "setting": "[4]; Homo sapiens, read-out: cell viability, 501Mel Parental, 1μΜ", "result": 101, "unit": "%"}, {"measurement": "viability at 10 µM", "setting": "[4]; Homo sapiens, read-out: cell viability, 501Mel Parental, 10μΜ", "result": 60.8, "unit": "%"}, {"measurement": "viability at 1 µM", "setting": "[5]; Homo sapiens, IGR-37, 72 h, read-out: cell viability, IGR37 XP, 1μΜ", "result": 106, "unit": "%"}, {"measurement": "viability at 10 µM", "setting": "[5]; Homo sapiens, IGR-37, 72 h, read-out: cell viability, IGR37 XP, 10μΜ", "result": 11.7, "unit": "%"}, {"measurement": "viability at 1 µM", "setting": "[6]; Homo sapiens, IGR-37, 72 h, read-out: cell viability, IGR37 Parental, 1μΜ", "result": 103, "unit": "%"}, {"measurement": "viability at 10 µM", "setting": "[6]; Homo sapiens, IGR-37, 72 h, read-out: cell viability, IGR37 Parental, 10μΜ", "result": 86.1, "unit": "%"}, {"measurement": "viability at 1 µM", "setting": "[7]; Homo sapiens, read-out: cell viability, 501Mel XP, 1μΜ", "result": 115, "unit": "%"}, {"measurement": "viability at 10 µM", "setting": "[7]; Homo sapiens, read-out: cell viability, 501Mel XP, 10μΜ", "result": 35.8, "unit": "%"}, {"measurement": "viability at 1 µM", "setting": "[8]; Homo sapiens, read-out: cell viability, 501Mel GP, 1μΜ", "result": 105, "unit": "%"}, {"measurement": "viability at 10 µM", "setting": "[8]; Homo sapiens, read-out: cell viability, 501Mel GP, 10μΜ", "result": 50.6, "unit": "%"}, {"measurement": "viability at 1 µM", "setting": "[9]; Homo sapiens, IGR-37, 72 h, read-out: cell viability, IGR37 GP, 1μΜ", "result": 94.2, "unit": "%"}, {"measurement": "viability at 10 µM", "setting": "[9]; Homo sapiens, IGR-37, 72 h, read-out: cell viability, IGR37 GP, 10μΜ", "result": 25.5, "unit": "%"}]}, {"smiles": "CNC(=O)c1cc(Oc2ccc(NC(=O)Nc3cc(C(C)(C)C)nn3-c3ccc4ncccc4c3)c(F)c2)ccn1", "note": "[DCC-2036 (Rebastinib)]", "values": [{"measurement": "cell viability (kinase inhibitor library screening)", "setting": "[1]; A375 GP, 1μΜ, 72 h", "result": 96.7, "unit": "%"}, {"measurement": "cell viability (kinase inhibitor library screening)", "setting": "[1]; A375 GP, 10μΜ, 72 h", "result": 3.6, "unit": "%"}, {"measurement": "cell viability (kinase inhibitor library screening)", "setting": "[2]; A375 Parental, 10μΜ, 72 h", "result": 1.8, "unit": "%"}, {"measurement": "cell viability (kinase inhibitor library screening)", "setting": "[2]; A375 Parental, 1μΜ, 72 h", "result": 55.4, "unit": "%"}, {"measurement": "cell viability (kinase inhibitor library screening)", "setting": "[3]; A375 XP, 1μΜ, 72 h", "result": 76.3, "unit": "%"}, {"measurement": "cell viability (kinase inhibitor library screening)", "setting": "[3]; A375 XP, 10μΜ, 72 h", "result": 2.5, "unit": "%"}, {"measurement": "cell viability (kinase inhibitor library screening)", "setting": "[4]; 501Mel Parental, 1μΜ", "result": 81.5, "unit": "%"}, {"measurement": "cell viability (kinase inhibitor library screening)", "setting": "[4]; 501Mel Parental, 10μΜ", "result": 2.8, "unit": "%"}, {"measurement": "cell viability (kinase inhibitor library screening)", "setting": "[5]; IGR37 XP, 1μΜ, 72 h", "result": 107.3, "unit": "%"}, {"measurement": "cell viability (kinase inhibitor library screening)", "setting": "[5]; IGR37 XP, 10μΜ, 72 h", "result": 2.4, "unit": "%"}, {"measurement": "cell viability (kinase inhibitor library screening)", "setting": "[6]; IGR37 Parental, 1μΜ, 72 h", "result": 67.0, "unit": "%"}, {"measurement": "cell viability (kinase inhibitor library screening)", "setting": "[6]; IGR37 Parental, 10μΜ, 72 h", "result": 20.7, "unit": "%"}, {"measurement": "cell viability (kinase inhibitor library screening)", "setting": "[7]; 501Mel XP, 1μΜ", "result": 102.9, "unit": "%"}, {"measurement": "cell viability (kinase inhibitor library screening)", "setting": "[7]; 501Mel XP, 10μΜ", "result": 0.261, "unit": "%"}, {"measurement": "cell viability (kinase inhibitor library screening)", "setting": "[8]; 501Mel GP, 1μΜ", "result": 100.3, "unit": "%"}, {"measurement": "cell viability (kinase inhibitor library screening)", "setting": "[8]; 501Mel GP, 10μΜ", "result": 2.0, "unit": "%"}, {"measurement": "cell viability (kinase inhibitor library screening)", "setting": "[9]; IGR37 GP, 10μΜ, 72 h", "result": 8.3, "unit": "%"}]}, {"smiles": "CC(C)(C)c1nc(-c2cccc(NS(=O)(=O)c3c(F)cccc3F)c2F)c(-c2ccnc(N)n2)s1", "note": "[Dabrafenib (GSK2118436)]", "values": [{"measurement": "Cell viability in kinase inhibitor library screening, A375 GP, 1μΜ", "setting": "[1]; A375 GP, 1μΜ, 72 h", "result": 65.8}, {"measurement": "Cell viability in kinase inhibitor library screening, A375 GP, 10μΜ", "setting": "[1]; A375 GP, 10μΜ, 72 h", "result": 52.9}, {"measurement": "Cell viability in kinase inhibitor library screening, A375 Parental, 10μΜ", "setting": "[2]; A375 Parental, 10μΜ, 72 h", "result": 26.9}, {"measurement": "Cell viability in kinase inhibitor library screening, A375 Parental, 1μΜ", "setting": "[2]; A375 Parental, 1μΜ, 72 h", "result": 17.6}, {"measurement": "Cell viability in kinase inhibitor library screening, A375 XP, 1μΜ", "setting": "[3]; A375 XP, 1μΜ, 72 h", "result": 73.0}, {"measurement": "Cell viability in kinase inhibitor library screening, A375 XP, 10μΜ", "setting": "[3]; A375 XP, 10μΜ, 72 h", "result": 48.7}, {"measurement": "Cell viability in kinase inhibitor library screening, 501Mel Parental, 1μΜ", "setting": "[4]; 501Mel Parental, 1μΜ, in %", "result": 51.2}, {"measurement": "Cell viability in kinase inhibitor library screening, 501Mel Parental, 10μΜ", "setting": "[4]; 501Mel Parental, 10μΜ, in %", "result": 72.8}, {"measurement": "Cell viability in kinase inhibitor library screening, IGR37 XP, 10μΜ", "setting": "[5]; IGR37 XP, 10μΜ, 72 h", "result": 78.9, "unit": "%"}, {"measurement": "Cell viability in kinase inhibitor library screening, IGR37 XP, 1μΜ", "setting": "[5]; IGR37 XP, 1μΜ, 72 h, in %", "result": 93.2}, {"measurement": "Cell viability in kinase inhibitor library screening, IGR37 Parental, 1μΜ", "setting": "[6]; IGR37 Parental, 1μΜ, 72 h, in %", "result": 34.2}, {"measurement": "Cell viability in kinase inhibitor library screening, IGR37 Parental, 10μΜ", "setting": "[6]; IGR37 Parental, 10μΜ, 72 h, in %", "result": 44.5}, {"measurement": "Cell viability in kinase inhibitor library screening, 501Mel XP, 1μΜ", "setting": "[7]; 501Mel XP, 1μΜ, in %", "result": 79.2}, {"measurement": "Cell viability in kinase inhibitor library screening, 501Mel XP, 10μΜ", "setting": "[7]; 501Mel XP, 10μΜ, in %", "result": 97.5}, {"measurement": "Cell viability in kinase inhibitor library screening, 501Mel GP, 1μΜ", "setting": "[8]; 501Mel GP, 1μΜ, in %", "result": 96.2}, {"measurement": "Cell viability in kinase inhibitor library screening, 501Mel GP, 10μΜ", "setting": "[8]; 501Mel GP, 10μΜ, in %", "result": 92.9}, {"measurement": "Cell viability in kinase inhibitor library screening, IGR37 GP, 10μΜ", "setting": "[9]; IGR37 GP, 10μΜ, 72 h", "result": 97.8, "unit": "%"}, {"measurement": "Cell viability in kinase inhibitor library screening, IGR37 GP, 1μΜ", "setting": "[9]; IGR37 GP, 1μΜ, 72 h, in %", "result": 94.6}]}]}
